Laboratory results as given in publication PMC11502502 (Nature cancer, 2024).
Several values for one entry are separate records, joined by “and”; a condition that tells them apart may be missing. Identical values can stand only once. Like-named read-outs stand apart in the source and are kept apart here. Blank lines part the entries; values can stand above or below the molecule they belong to.

Experiments:
SNU-16 = experiment: CellTiter-Glo cell viability, SNU-16; type: cell-based; settings: Homo sapiens, SNU-16, 72 h
RPMI 8226 = experiment: CellTiter-Glo cell viability, RPMI 8226; type: cell-based; settings: Homo sapiens, RPMI-8226, 72 h
SU-DHL-10 = experiment: CellTiter-Glo cell viability, SU-DHL-10; type: cell-based; settings: Homo sapiens, SU-DHL10, 72 h
OPM-2 = experiment: CellTiter-Glo cell viability, OPM-2; type: cell-based; settings: Homo sapiens, OPM-2, 72 h
HMC1–8 = experiment: CellTiter-Glo cell viability, HMC1–8; type: cell-based; settings: Homo sapiens, 72 h
SU-DHL-5 = experiment: CellTiter-Glo cell viability, SU-DHL-5; type: cell-based; settings: Homo sapiens, SU-DHL-5, 72 h
HCC-1187 = experiment: CellTiter-Glo cell viability, HCC-1187; type: cell-based; settings: Homo sapiens, HCC1187, 72 h
PA-1 = experiment: CellTiter-Glo cell viability, PA-1; type: cell-based; settings: Homo sapiens, PA-1, 72 h
A-427 = experiment: CellTiter-Glo cell viability, A-427; type: cell-based; settings: Homo sapiens, A-427, 72 h
AMO-1 = experiment: CellTiter-Glo cell viability, AMO-1; type: cell-based; settings: Homo sapiens, AMO1, 72 h
DMS114 = experiment: CellTiter-Glo cell viability, DMS114; type: cell-based; settings: Homo sapiens, DMS-114, 72 h
JJN-3 = experiment: CellTiter-Glo cell viability, JJN-3; type: cell-based; settings: Homo sapiens, JJN-3, 72 h
A-431 = experiment: CellTiter-Glo cell viability, A-431; type: cell-based; settings: Homo sapiens, A-431, 72 h
NCI-H82 = experiment: CellTiter-Glo cell viability, NCI-H82; type: cell-based; settings: Homo sapiens, NCI-H82, 72 h
KMS-12-PE = experiment: CellTiter-Glo cell viability, KMS-12-PE; type: cell-based; settings: Homo sapiens, 72 h
KMS-12-BM = experiment: CellTiter-Glo cell viability, KMS-12-BM; type: cell-based; settings: Homo sapiens, 72 h
[1] = Protein-binding assay with equilibrium dialysis in cell culture medium; type: in vitro ADME; settings: bovine, cell culture medium with 10% fetal calf serum
MOLP-8 = experiment: CellTiter-Glo cell viability, MOLP-8; type: cell-based; settings: Homo sapiens, MOLP-8, 72 h
HCC-2157 = experiment: CellTiter-Glo cell viability, HCC-2157; type: cell-based; settings: Homo sapiens, HCC2157, 72 h
SNU398 = experiment: CellTiter-Glo cell viability, SNU398; type: cell-based; settings: Homo sapiens, SNU-398, 72 h
[2] = tested on: hiPS cell-derived cardiomyocytes; experiment: hiPS cell-derived cardiomyocytes: extracellular LDH; type: cell-based, human; settings: 1 μM, 72 h
[3] = tested on: hiPS cell-derived cardiomyocytes; experiment: hiPS cell-derived cardiomyocytes: activation of caspases 3 and 7; type: cell-based, human; settings: 1 μM, 72 h
[4] = tested on: hiPS cell-derived cardiomyocytes; experiment: hiPS cell-derived cardiomyocytes: cell viability (ATP levels, cell titer glow)
[5] = tested on: hiPS cell-derived cardiomyocytes; experiment: hiPS cell-derived cardiomyocytes: DAPI-stained number of nuclei; type: cell-based, human
[6] = tested on: hiPS cell-derived cardiomyocytes; experiment: hiPS cell-derived cardiomyocytes: extracellular troponin I (AlphaLISA); type: cell-based, human
[7] = read-out: Anti-proliferative IC50
[8] = read-out: Antiproliferative IC50u

IC50 (SNU-16; [7]): 583 nM
IC50 (SNU-16; [8]): 6 nM
IC50 (SU-DHL-10; [7]): 87 nM
IC50 (SU-DHL-10; [8]): 0.9 nM
IC50 (SU-DHL-5; [7]): 117 nM
IC50 (SU-DHL-5; [8]): 1.2 nM
IC50 (HCC-1187; [7]): 330 nM
IC50 (HCC-1187; [8]): 3.4 nM
IC50 (A-431; [7]): 641 nM
IC50 (A-431; [8]): 6.6 nM
IC50 (NCI-H82; [7]): 476 nM
IC50 (NCI-H82; [8]): 4.9 nM
fraction unbound [1]: 0.01
IC50 (HCC-2157; [7]): 262 nM
IC50 (HCC-2157; [8]): 2.7 nM
IC50 (SNU398; [7]): 495 nM
IC50 (SNU398; [8]): 5.1 nM
SMILES: CO[C@H]1/C=C/C[C@H](C)[C@@H](C)S(=O)(=O)NC(=O)c2ccc3c(c2)N(C[C@@H]2CC[C@H]21)C[C@@]1(CCCc2cc(Cl)ccc21)CO3 [AMG176]
IC50 (RPMI 8226; [7]): 291 nM
IC50 (RPMI 8226; [8]): 3 nM
IC50 (OPM-2; [7]): 117 nM
IC50 (OPM-2; [8]): 1.2 nM
IC50 (HMC1–8; [7]): 583 nM
IC50 (HMC1–8; [8]): 6 nM
IC50 (PA-1; [7]): 631 nM
IC50 (PA-1; [8]): 6.5 nM
IC50 (A-427; [7]): 563 nM
IC50 (A-427; [8]): 5.8 nM
IC50 (AMO-1; [7]): 126 nM
IC50 (AMO-1; [8]): 1.3 nM
IC50 (DMS114; [7]): 282 nM
IC50 (DMS114; [8]): 2.9 nM
IC50 (JJN-3; [7]): 553 nM
IC50 (JJN-3; [8]): 5.7 nM
IC50 (KMS-12-PE; [7]): 1160 nM
IC50 (KMS-12-PE; [8]): 12 nM
IC50 (KMS-12-BM; [7]): 184 nM
IC50 (KMS-12-BM; [8]): 1.9 nM
IC50 (MOLP-8; [7]): 223 nM
IC50 (MOLP-8; [8]): 2.3 nM

LDH release [2]: increased LDH release
Caspase 3 activation [3]: time-dependent activation of caspase 3
Nuclear counts ([5]; 1 μM, 72 h): decreased nuclear counts
DAPI stained number of nuclei ([5]; Doxorubicin - wash, 3h): 0.4105 and 0.3857 and 0.4592
DAPI stained number of nuclei ([5]; Doxorubicin - wash, 6h): 0.9721 and 0.9984 and 0.8453
DAPI stained number of nuclei ([5]; Doxorubicin - wash, 24h): 0.5586 and 0.4572 and 0.5102
DAPI stained number of nuclei ([5]; Doxorubicin - wash, 48h): 0.8181 and 0.8435 and 0.8812
DAPI stained number of nuclei ([5]; Doxorubicin - wash, 72h): 0.2447 and 0.2247 and 0.2518
DAPI stained number of nuclei ([5]; Doxorubicin, 3h): 0.3508 and 0.3671 and 0.4582
DAPI stained number of nuclei ([5]; Doxorubicin, 6h): 0.9886 and 0.9511 and 0.985
DAPI stained number of nuclei ([5]; Doxorubicin, 24h): 0.3141 and 0.2601 and 0.2627
DAPI stained number of nuclei ([5]; Doxorubicin, 48h): 0.2344 and 0.4107 and 0.4046
Extracellular troponin I ([6]; Doxorubicin - wash, 48h): 5.76 and 7.195 and 6.893
Extracellular troponin I ([6]; Doxorubicin - wash, 72h): 12.7295 and 11.4567 and 13.7321
Extracellular troponin I ([6]; Doxorubicin, 3h): 0.7061 and 0.6741 and 0.6927
Extracellular troponin I ([6]; Doxorubicin, 6h): 2.491 and 1.893 and 3.419
Extracellular troponin I ([6]; Doxorubicin, 48h): 9.842 and 16.5962 and 13.2372
Extracellular troponin I ([6]; Doxorubicin, 72h): 30.5761 and 27.6931 and 29.1909
SMILES: COc1cccc2c1C(=O)c1c(O)c3c(c(O)c1C2=O)C[C@@](O)(C(=O)CO)C[C@@H]3O[C@H]1C[C@H](N)[C@H](O)[C@H](C)O1 [doxorubicin]
ATP levels ([4]; 1 μM, 72 h): reduced ATP levels
Cell viability via cell titer glow ([4]; Doxorubicin - wash, 3h): 0.9604 and 0.941 and 0.9405
Cell viability via cell titer glow ([4]; Doxorubicin - wash, 6h): 0.9905 and 0.9749 and 0.9586
Cell viability via cell titer glow ([4]; Doxorubicin - wash, 24h): 0.9393 and 0.938 and 0.976
Cell viability via cell titer glow ([4]; Doxorubicin - wash, 48h): 0.6883 and 0.7253 and 0.7219
Cell viability via cell titer glow ([4]; Doxorubicin - wash, 72h): 0.5187 and 0.5467 and 0.5116
Cell viability via cell titer glow ([4]; Doxorubicin, 3h): 0.9456 and 0.9453 and 0.963
Cell viability via cell titer glow ([4]; Doxorubicin, 6h): 0.9853 and 1.049 and 1.001
Cell viability via cell titer glow ([4]; Doxorubicin, 24h): 0.9003 and 0.8578 and 0.8897
Cell viability via cell titer glow ([4]; Doxorubicin, 48h): 0.5823 and 0.6777 and 0.6323
Cell viability via cell titer glow ([4]; Doxorubicin, 72h): 0.4355 and 0.3955 and 0.4606
